Test results reported in paper PMC11013010, “Serendipitous Identification of Azine Anticancer Agents Using a Privileged Scaffold Morphing Strategy” (Molecules, 2024).
In brackets after ≈: the same amount, converted by molar mass. Several values for one entry are separate records, joined by “and”; a condition that tells them apart may be missing. Equal entries are not always repeated.

Key:
SARS-CoV-2 = tested on: SARS-CoV-2; parameters: method as in PMID 36557962; details: half-maximal concentration inhibiting 50% of virus replication; cited from earlier work
[1] = Cytotoxicity assay (CellTiter Glo) on hepatocarcinoma cells; type: cell-based; details: human, Huh7 hepatocarcinoma cells, Huh7 hepatocarcinoma
Experimental: (§1) Cell-based assays were carried out on the normal human fibroblast FB789 cell line (kindly provided by Elena Dell’Ambra from IRCCS Istituto Dermopatico dell’Immacolata, Rome), on the Huh7 hepatocarcinoma cell line (kindly provided by Istituto Toscano Tumori, Core Research Laboratory, Siena, Italy), on the Caco-2 adenocarcinoma colorectal cell line (ATCC catalog. n. HTB-37), on the suspension H9 cell line (repository code ARP0001, NIBSC Centre for AIDS reagents) and on the adherent TZM-bl cell line (repository code ARP5011, NIBSC Centre for AIDS reagents).
(§2) High glucose Dulbecco’s Modified Eagle Medium with sodium pyruvate and L-glutamine (DMEM; Euroclone) was used to grow Huh-7 and TZM-bl. Minimum Essential Eagle Medium (EMEM; Euroclone) was used to propagate Caco-2. DMEM and EMEM were supplemented with 10% fetal bovine serum (FBS; Euroclone) and 1% penicillin/streptomycin (Pen/Strep, Euroclone). The growth medium with a lower concentration of FBS (1%) was used for viral propagation, cytotoxic and antiviral experiments in adherent cell lines. […] All cell lines were grown at 37 °C in a 5% CO2 atmosphere in a humidified incubator.
(§3) The cytotoxicity of all investigated compounds was assayed in all cells lines as previously described. Briefly, confluent cells were treated with decreasing compound concentrations for 48h. The final DMSO concentration used was never greater than 0.5% v/v. Each experiment was performed in duplicate and repeated in two independent experiments. Cell viability was calculated using the CellTiter Glo 2.0 kit (Promega, Madison, WI, USA) and luminescence values signal obtained from cells treated with serial dilution of the compounds were measured through the GloMax® Discover Multi mode Microplate Reader (Promega) and elaborated with GraphPad PRISM software version 9.0 (La Jolla, San Diego, CA, USA). […] A non-toxic dose of each compound was used as the starting concentration in the antiviral activity assay.

Huh7 cells = experiment: as above; type: cell-based; details: for TSI Huh7: ratio CC50 FB789 / CC50 Huh7
Experimental: as §1, §2, §3

[2] = Cytotoxicity assay (CellTiter Glo) on normal fibroblasts; type: cell-based, human; details: human, FB789 normal fibroblast cells
Experimental: as §1
(§4) The FB789 was cultured in Dulbecco’s Modified Eagle Medium (DMEM) and Ham’s F10 in a ratio of 50%, supplemented with 10% FBS, 2 mM L-glutamine, and 10,000 unit/mL penicillin/streptomycin.
as §3

[3] = Cytotoxicity assay (CellTiter Glo) on colon epithelial carcinoma cells; details: human, Caco-2
Caco-2 cells = experiment: as above; details: for TSI Caco-2: ratio CC50 FB789 / CC50 Caco-2
[4] = Cytotoxicity assay (CellTiter Glo) on lymphoma cells; details: human
H9 cells = experiment: as above; details: ratio CC50 FB789 / CC50 H9
WNV = WNV antiviral yield reduction assay in Huh7; details: read-out: potency on WNV; flavivirus WNV
DENV = DENV antiviral yield reduction assay in Huh7; details: read-out: potency on DENV; flavivirus DENV
[5] = Metabolic stability assay with human liver microsomes; type: in vitro ADME; details: 1 h, 37 °C, 50 µM
Experimental: A DMSO solution of selected compounds was incubated in the presence of phosphate buffer (25 mM, pH 7.4), human liver microsomal protein (200 µg/mL), and an NADPH regenerating system in MgCl2 (48 mM) at a final concentration of 50 µM. The metabolic reactions were conducted for 1 h under shaking at 37 °C and then stopped by adding cold acetonitrile (ACN). Centrifuging the mixtures at 5000 rpm, the supernatant was separated, dried under nitrogen flow, and finally suspended in methanol (MeOH). The amount of the parent drug and the metabolites were determined as previously described.

[6] = Parallel artificial membrane permeability assay (PAMPA); type: in vitro ADME; details: GI, pH 7.4, 5 h, RT
Experimental: To evaluate the apparent permeability of tested compounds, a DMSO stock solution [1 mM] of each derivative was prepared and then diluted 1:1 v/v with phosphate buffer (PBS 25 mM, pH 7.4) in order to make the donor solutions. According to the protocol already published, the gastrointestinal (GI) phospholipidic bilayer was mimed through adding a 1% w/v dodecane solution of phosphatidylcholine (PC). The sandwich plates were assembled and incubated for 5 h at RT. At the end time point, the amount of compound passed through the phospholipid bilayer was measured using HPLC-UV/MS. Finally, apparent permeability (Papp) and membrane retention (MR%) were calculated as previously described.

[7] = Kinetic aqueous solubility; type: physicochemical; details: Milli-Q water, 25 °C, kinetic from dmso stock; for solubility kinetic at 3 h: water, Mill-Q H2O, RT, LOD 0.1 µg/mL
Experimental: For the quantitative analysis, a UV/LC-MS system was used. LC analysis was performed through an Agilent 1260 Infinity HPLC-DAD system (Agilent Technologies, Palo Alto, CA, USA), which constituted of a vacuum solvent degassing unit, a binary high-pressure gradient pump, and a UV detector, that was connected to an Agilent MSD 6130 system (Agilent Technologies, Palo Alto, CA, USA). The Agilent 1260 series mass spectra detection (MSD) single-quadrupole instrument was equipped with the orthogonal spray API-ES (Agilent Technologies, Palo Alto, CA, USA). Nitrogen was used as a nebulizing and drying gas. Chromatographic separation was performed using a Phenomenex Kinetex EVO C18-100 Å (150 × 4.6 mm, 5 μm particle size) at 25 °C and a gradient elution with a binary solution; eluent A was H2O, while eluent B consisted of ACN (both eluents were acidified with FA 0.1% v/v). […] UV detection was monitored at 254 nm. Spectra were acquired over the scan range m/z 100–1500 in positive mode.
DMSO-stock compounds’ solutions were diluted with Mill-Q H2O to a final concentration of 200 μM. The percentage of DMSO never exceeded 2% v/v. Samples were incubated under gentle shaking at 25 °C (RT) conditions for 3 h. The suspensions were filtered using a 0.45 µm nylon filter (Acrodisc, VWR, Radnor, PE, USA), and the amount of solubilized compound was determined with the HPLC-UV-MS method reported above. The quantification of the solubilized compound was made with the appropriate calibration curve realized with stock solutions in DMSO (0.1–100 µg/mL). The limit of detection (LOD) was quantified at 0.1 µg/mL.

Plasma stability assay = type: in vitro ADME; details: human plasma, 24 h, 37 °C; % of Time 0
Experimental: A DMSO solution of each compound was incubated at a final concentration of 100 µM at 37 °C under shaking with HEPES buffer (25 mM, 140 mM NaCl, pH 7.4) and human plasma. At time 0 and after 24 h, samples were collected from the reaction mixtures and treated with cold ACN. After centrifugation at 5000 rpm for 10 min, the supernatant was collected, and the amount of unmodified compound was determined using the HLPC-UV/MS method described above. Modified compounds were calculated using time zero as 100% of the unmodified compound.

FB789 cells = experiment: Cytotoxicity assay (CellTiter Glo) on normal fibroblasts; type: cell-based, human; details: pyrimidines and pyridines, read out at 48 h, mean ± SD
Experimental: as §1, §4, §3

[8] = triazines 1-9, read-out 48 h, Cell-Titer Glo
[9] = pyrimidines and pyridines, read out at 48 h, mean ± SD
[10] = 21a vs triazine 4, 33b vs triazine 6

Structure (SMILES)	CC50 at 48 h [3]	CC50 at 48 h [4]	Metabolic Stability [5]	CC50 at 48 h [1, 9]	TSI Huh7 (Huh7 cells; pyrimidines and pyridines)	CC50 at 48 h [2, 9]	MR (membrane retention) [6]	Papp at 5 h, 0.5 mM [6]	TSI Caco-2 (Caco-2 cells; pyrimidines and pyridines)	solubility kinetic at 3 h [7]	TSI H9 (H9 cells; pyrimidines and pyridines)	Plasmatic Stability (Plasma stability assay)	also measured
Oc1ccccc1/C=N/Nc1nc(N2CCOCC2)nc(N2CCOCC2)n1 [Compound 1]	> 400 µM	> 100 µM											IC50 (SARS-CoV-2): 12.1 µM; CC50 at 48 h ([1]; triazines 1-9, read-out 48 h): > 100 µM; TSI Huh7 (Huh7 cells; triazines 1-9): <0.3; CC50 at 48 h [2, 8]: 30 ± 6 µM; TSI Caco-2 (Caco-2 cells; triazines 1-9): <0.1; TSI H9 (H9 cells; triazines 1-9): <0.3
Oc1ccccc1/C=N/Nc1nc(Nc2ccc(F)cc2)nc(N2CCOCC2)n1 [Compound 4]	3 ± 1 µM	2 ± 1 µM											CC50 at 48 h ([1]; triazines 1-9, read-out 48 h): 9 ± 1 µM; TSI Huh7 (Huh7 cells; triazines 1-9): 1.2; CC50 at 48 h [2, 8]: 11 ± 3 µM; TSI Caco-2 (Caco-2 cells; triazines 1-9): 3.7; TSI H9 (H9 cells; triazines 1-9): 5.5; IC50 (WNV): 1.1 µM; IC50 (DENV): 2 µM
Oc1ccccc1/C=N/Nc1cc(Nc2ccc(F)cc2)nc(Nc2ccc(F)cc2)n1 [Compound 19a]	2 ± 1 µM	31 ± 8 µM	>99.9%	1 ± 0.3 µM	14.0	14 ± 3 µM	20.99% and 20.91 ± 1.75%	3.59 ± 0.21 ×10⁻⁶ cm/s	7.0	< 0.1 µg/mL	0.5	86.64 ± 0.17%	
Cc1cccc(/C=N/Nc2cc(Nc3ccc(F)cc3)nc(Nc3ccc(F)cc3)n2)c1 [Compound 19b]	4 ± 1 µM	48 ± 3.5 µM	98.31 ± 0.11%	6 ± 1 µM	10.2	61 ± 9 µM	27.42% and 27.42 ± 1.22%	5.64 ± 0.59 ×10⁻⁶ cm/s	15.3	< 0.1 µg/mL	1.3	>99.9%	
Oc1ccccc1/C=N/Nc1cc(Nc2ccc(F)cc2)nc(N2CCOCC2)n1 [Compound 21a]	2 ± 0.4 µM	11 ± 2 µM	>99.9%	3 ± 1 µM	3.3	10 ± 5 µM	26.03 ± 6.17%	4.8 ± 0.73 ×10⁻⁶ cm/s	5.0	< 0.1 µg/mL	no selectivity	96.93 ± 2.73%	fold higher TSI than reference triazine, Huh7 (Huh7 cells; [10]): 2.8 fold; fold higher TSI than reference triazine, Caco-2 (Caco-2 cells; [10]): 1.4 fold
Cc1cccc(/C=N/Nc2cc(Nc3ccc(F)cc3)nc(Nc3ccc(F)cc3)c2)c1 [Compound 33b]	11 ± 9 µM	23 ± 7 µM	>99.9%	21 ± 12 µM	18.6	390 ± 30 µM	46.84% and 46.84 ± 4.99%	1.38 ± 0.6 ×10⁻⁶ cm/s	35.5	< 0.1 µg/mL	17.0	81.01 ± 3.28%	CC50 FB789 (FB789 cells): very low cytotoxic effect
Cc1cccc(/C=N/Nc2cc(Nc3ccc(F)cc3)nc(N3CCOCC3)c2)c1 [Compound 38b]	8 ± 3 µM	18 ± 4 µM	97.93 ± 0.46%	9 ± 6 µM	10.0	90 ± 9 µM		6.35 ± 0.67 ×10⁻⁶ cm/s	11.3	0.54 µg/mL (≈ 1.33 µM)	5.0	87.13 ± 0.48%	CC50 FB789 (FB789 cells): very low cytotoxic effect; solubility at 3 h ([7]; log of kinetic water solubility, read-out: LogS (converted)): 1.35 µM (≈ 0.547 µg/mL)
